Measured values taken from patent US11166942B2 (PRAXIS BIOTECH LLC, priority 2018, dated 2021).
Like-named read-outs stand apart in the source and are kept apart here.

Experiments:
[1] = tested on: ATF4; experiment: ATF4 expression inhibition assay (ATF4 5'UTR luciferase reporter, Tg-stressed HEK293T cells); format: cell-based, human; conditions: Homo sapiens, HEK-293T, 3 h; for inhibition at 0.1 µM: read-out: % ATF4 inhibition at 100 nM; for IC50: read-out: ATF4 inhbition IC50; for inhibition at 1 µM: read-out: % ATF4 inhibition at 1 μM
Procedure: The ATF4 reporter was prepared by fusing the human full length 5′UTR of ATF4 (NCBI Accession No. BC022088.2) upstream of the firefly luciferase coding sequence lacking the initiator methionine. The fused sequence was cloned into pLenti-EF1a-C-Myc-DDK-IRES-Puro cloning vector (Origen #PS100085) using standard methods. Virus production was carried out by using Lenti-X™ Packaging Single Shots Protocol (Clonetech #631276). Viral particles were used to transduce HEK293T cells (ATCC #CRL-3216, ATCC Manassas, Va.), which were subsequently selected with puromycin to generate stable cell line. Cells were maintained at 37° C. and 5% CO2 in DMEM-F12 (Hyclone #SH30023.02) supplemented with 10% heat-inactivated fetal bovine serum (Gibco #16000-044), 2 mM L-glutamine (Gibco #25030-081), 100 U/ml penicillin, and 100 μg/ml streptomycin (Gibco #15140-122).
HEK293T cells carrying the ATF4 luciferase reporter were plated on 96-well plates (Nunc) at 10,000 cells per well. Cells were treated two days after seeding with 100 nM thapsigargin (Tg) (Sigma-Aldrich #T9033) in the presence of 100 nM or 1 μM. For the assessment of the half-maximal inhibitory concentration (IC50) for selected compounds, dose-response assays were performed. Compounds were serially diluted using DMSO ranging from 0.1 nM to 1 μM. Cells without treatment or cells treated with Tg alone were used as controls. Assay plates containing cells were incubated for 3 hours at 37° C.
Luciferase reactions were performed using Luciferase Assay System (Promega #E1501) as specified by the manufacturer. Luminescence was read with an integration time of 1 s and a gain of 110 using a Cytation-5 multi-mode microplate reader (BioTek). Relative luminescence units were normalized to Tg treatment (0% inhibition) and untreated cells (100% inhibition) and the percentage of ATF4 inhibition was calculated.
Percentages of ATF4 inhibition after induction with Tg in the presence of 100 nM or 1 μM of certain test compounds are shown in Table 2. Also shown in Table 2 is the calculated IC50 for certain test compounds. […] Accordingly, inhibition of ATF4 expression as a result of the test compound indicates suppression of the ISR pathway.

[2] = tested on: Chinese hamster ovary (CHO) cells; experiment: Protein translation assay (puromycin labelling, CHO cells); format: cell-based; conditions: media alone = 100%; for % Recovery of protein expression (100 nM test compound): 100 nM compound; for activity at 1 µM: Cricetulus griseus, CHO
Procedure: Chinese hamster ovary (CHO) cells were maintained at 37° C. and 5% CO2 in Dulbecco's Modified Eagle's Media (DMEM) supplemented with 10% fetal bovine serum, 2 mM L-glutamine, 100 U/ml penicillin, and 100 μg/ml streptomycin. After reaching 80% of confluence, cells were detached and seeded on 6 well plates in complete media, allowed to recover overnight and treated for 2 hours with 1 μM of the test compound (to assess protein synthesis levels in unstressed condition), or for 1 hour with 100 nM or 1 μM of the test compound and then co-treated with 300 nM Tg and 100 nM or 1 μM of the test compound (to assess the recovery of protein synthesis in a stressed condition). Cells treated with Tg alone were used as controls.
After the 2 hours treatments, media were replaced by adding 10 μg/ml puromycin (Sigma Aldrich #P8833) in complete media for 30 min. Media were removed and cells were lysed with SDS-PAGE lysis buffer. Lysates were transferred to 1.5 ml tubes and sonicated for 3 min and total protein amount were quantified using BCA Protein Assay Kit (Pierce). Equal amount of protein (30 μg) was loaded on SDS-PAGE gels. Proteins were transferred onto 0.2 μm PVDF membranes (BioRad) and probed with primary antibodies diluted in Tris-buffered saline supplemented with 0.1% Tween 20 (Merck #S6996184 505) and 3% bovine serum albumin (Rockland #BSA-50).
Puromycin (12D10) (Merck #MABE343) and β-actin (Sigma Aldrich #A5441) antibodies were used as primary antibody. A HRP-conjugated secondary antibody (Rockland) was employed to detect immune-reactive bands using enhanced chemiluminescence (ECL Western Blotting Substrate, Pierce). Quantification of protein bands was done by densitometry using ImageJ software.
Percent increase of protein synthesis in unstressed cells (without Tg treatment) in the presence of media alone or certain test compounds is shown in Table 3 The percentage levels were normalized to the media alone condition, which correspond to 100% protein synthesis.
Percent recovery of protein synthesis in stressed cells (with Tg treatment) due to the test compounds at 100 nM or 1 μM is also shown in Table 3. The levels were normalized to the media alone and to Tg alone conditions, which correspond to 100% and 0% respectively.

[3] = 100 nM test compound, 100 nM thapsigargin, 3 hours, HEK293T ATF4 luciferase reporter
[4] = 100 nM thapsigargin, 3 hours, HEK293T ATF4 luciferase reporter
[5] = 1 μM test compound, 100 nM thapsigargin, 3 hours, HEK293T ATF4 luciferase reporter
[6] = CHO cells stressed with 300 nM Tg, Tg alone = 0%
[7] = 2 h, unstressed CHO cells, 1 μM, 2 hours, read-out: % Protein synthesis in unstressed cells (1 μM test compound)
[8] = CHO cells stressed with 300 nM Tg, 1 μM compound, Tg alone = 0%, read-out: % Recovery of protein expression (1 μM test compound)

| Structure (SMILES) | inhibition at 0.1 µM [1, 3] [%] | IC50 [1, 4] [nM] | inhibition at 1 µM [1, 5] [%] | % Recovery of protein expression (100 nM test compound) [2, 6] [%] | activity at 1 µM [2, 7] [%] | activity at 1 µM [2, 8] [%] | inhibition at 0.1 µM [1] [%] | inhibition at 1 µM [1] [%] | IC50 [1] [nM] |
| --- | --- | --- | --- | --- | --- | --- | --- | --- | --- |
| O=C(COc1ccc(Cl)c(F)c1)NN1CCC(NC(=O)c2ccc3cc(Cl)ccc3n2)CC1 [Compound 3, 6-chloro-N-(1-(2-(4-chloro-3-fluorophenoxy)acetamido)piperidin-4-yl)quinoline-2-carboxamide] | 88.1 | 10.6 | 92.2 | 81.6 | 152 | 190 |  |  |  |
| O=C(COc1ccc(Cl)c(F)c1)NN1CCC(NC(=O)c2cc3cc(Cl)ccc3o2)CC1 [Compound 5, 5-chloro-N-(1-(2-(4-chloro-3-fluorophenoxy)acetamido)piperidin-4-yl)benzofuran-2-carboxamide] | 85.7 | 18.8 | 93.7 | −7.1 | 135 | 110 |  |  |  |
| O=C(COc1ccc(Cl)c(F)c1)NN1CCN(CC(O)COc2ccc(Cl)c(F)c2)CC1 (stereo not drawn) [Compound 6, 2-(4-chloro-3-fluorophenoxy)-N-(4-(3-(4-chloro-3-fluorophenoxy)-2-hydroxypropyl)piperazin-1-yl)acetamide] | 75.9 | 30.8 | 83.8 | 16.7 | 97.9 | 105 |  |  |  |
| O=C(COc1ccc(Cl)c(F)c1)NN1CCC(NCC(O)COc2ccc(Cl)c(F)c2)CC1 (stereo not drawn) [Compound 8, 2-(4-chloro-3-fluorophenoxy)-N-(4-((3-(4-chloro-3-fluorophenoxy)-2-hydroxypropyl)amino)piperidin-1-yl)acetamide] |  |  |  |  | 121 | 52.1 | 44.2 | 70.9 | 153 |
| O=C(NN1CCN(CC(O)COc2ccc(Cl)c(F)c2)CC1)c1ccc2cc(Cl)ccc2c1 (stereo not drawn) [Compound 14, 6-chloro-N-(4-(3-(4-chloro-3-fluorophenoxy)-2-hydroxypropyl)piperazin-1-yl)-2-naphthamide] |  |  |  |  | 139 | 175 | 89.3 | 98.9 | 10.2 |
| O=C(NN1CCN(CC(O)COc2ccc(Cl)c(F)c2)CC1)c1ccc2cc(Cl)ccc2n1 (stereo not drawn) [Compound 15, 6-chloro-N-(4-(3-(4-chloro-3-fluorophenoxy)-2-hydroxypropyl)piperazin-1-yl)quinoline-2-carboxamide] |  |  |  |  | 119 | 248 | 87.8 | 100 | 12.4 |
| O=C(COc1ccc(Cl)c(F)c1)NN1CCN(CCCOc2ccc(Cl)c(F)c2)CC1 [Compound 16, 2-(4-chloro-3-fluorophenoxy)-N-(4-(3-(4-chloro-3-fluorophenoxy)propyl)piperazin-1-yl)acetamide] |  |  |  |  | 66.1 | -5.5 | 46.3 | 91.6 | 125 |
| O=C(NN1CCN(CCCOc2ccc(Cl)c(F)c2)CC1)c1ccc2cc(Cl)ccc2n1 [Compound 17, 6-chloro-N-(4-(3-(4-chloro-3-fluorophenoxy)propyl)piperazin-1-yl)quinoline-2-carboxamide] |  |  |  |  | 117 | 188 | 58.6 | 92.7 | 79.1 |
| O=C(NN1CCN(CCCOc2ccc(Cl)c(F)c2)CC1)c1cc2cc(Cl)ccc2o1 [Compound 18, 5-chloro-N-(4-(3-(4-chloro-3-fluorophenoxy)propyl)piperazin-1-yl) benzofuran-2-carboxamide] |  |  |  |  | 89.3 | 143 | 59.1 | 94.6 | 76.3 |
| O=C(NN1CCN(CC(O)COc2ccc(Cl)c(F)c2)CC1)c1cc2cc(Cl)ccc2o1 (stereo not drawn) [Compound 19, 5-chloro-N-(4-(3-(4-chloro-3-fluorophenoxy)-2-hydroxypropyl)piperazin-1-yl)benzofuran-2-carboxamide] |  |  |  |  | 115 | 175 | 87.3 | 95.8 | 11.5 |
| O=C(NN1CCC(NCC(O)COc2ccc(Cl)c(F)c2)CC1)c1ccc2cc(Cl)ccc2n1 (stereo not drawn) [Compound 20, 6-chloro-N-(4-((3-(4-chloro-3-fluorophenoxy)-2-hydroxypropyl)amino)piperidin-1-yl)quinoline-2-carboxamide] |  |  |  |  | 155 | 358 | 24.7 | 33.7 | > 10000 |
| O=C(NN1CCC(NCC(O)COc2ccc(Cl)c(F)c2)CC1)c1cc2cc(Cl)ccc2o1 (stereo not drawn) [Compound 21, 5-chloro-N-(4-((3-(4-chloro-3-fluorophenoxy)-2-hydroxypropyl)amino)piperidin-1-yl)benzofuran-2-carboxamide] |  |  |  |  | 129 | 236 | 68.6 | 86.9 | 61.9 |
| O=C(COc1ccc(Cl)c(F)c1)NN1CCC(NCCOc2ccc(Cl)c(F)c2)CC1 [Compound 22, 2-(4-chloro-3-fluorophenoxy)-N-(4-((2-(4-chloro-3-fluorophenoxy)ethyl)amino)piperidin-1-yl)acetamide] |  |  |  |  | 94.8 | 105 | 87.5 | 92.8 | 10.3 |
| O=C(NN1CCC(NCCOc2ccc(Cl)c(F)c2)CC1)c1ccc2cc(Cl)ccc2n1 [Compound 23, 6-chloro-N-(4-((2-(4-chloro-3-fluorophenoxy)ethyl)amino)piperidin-1-yl)quinoline-2-carboxamide] |  |  |  |  | 178 | 249 | 67.2 | 89.3 | 55.6 |
| O=C(NN1CCC(NCCOc2ccc(Cl)c(F)c2)CC1)c1cc2cc(Cl)ccc2o1 [Compound 24, 5-chloro-N-(4-((2-(4-chloro-3-fluorophenoxy)ethyl)amino)piperidin-1-yl)benzofuran-2-carboxamide] |  |  |  |  | 144 | 183 | 88 | 99.5 | 32.2 |
